Source: US20100104614A1, “PROVIDONE COMPOSITIONS FOR WOUND HEALING” (priority 2008, published 2010)

Experiment: Treatment of non-healing dog bite wounds in a patient (Example 1)
Type: in vivo, human
Conditions: course of antibiotics (a cephalosporin and flagyl) and daily dressing changes; after five weeks
Experimental: A patient presented with six non-healing dog bite wounds, one on their forearm, and the rest on their lower extremeties. Their wounds were treated with a course of antibiotics (a cephalosporin and flagyl) and daily dressing changes. […] Further treatment with hyperbaric oxygen was being contemplated.
Approximately one tablespoon of povidone powder was sprinkled over the patient's wounds. Within four days, wounds had completely healed.

Cc1ncc([N+](=O)[O-])n1CCO [flagyl]
wound healing outcome of prior treatment: remained unhealed
